Experiments:
Details in all cases: mouse, in vivo
[1] = tested on: A/California/07/2009 virus (H1N1; CA07); design: species or system BALB/c mice
[2] = tested on: A/California/07/2009 virus (H1N1; CA07); design: species or system BALB/c mice; remark: listed apart in the source
[3] = tested on: influenza virus; type: in vivo, mice

## CC(/C=C/C=C(C)/C=C/C(=O)O)=C\C=C\C=C(C)\C=C\C=C(C)\C=C\C(=O)O (stereo in doubt) [Norbixin]
[1]
  Relative ratio of antibody titer to alum (compound/alum), secondary screening: 5.14
  virus-specific antibody titers compared with the alum adjuvant: equal to or higher than the alum adjuvant did
[2]
  Antibody titers in primary screening, Vaccine + compound: 7680.00
  Relative ratio of antibody titer to alum (compound/alum), primary screening: 8.00
[3]
  Antibody titers (IgG): 340

From patent US20240261398A1 (priority 2018, published 2024)
